Values joined by “and” are separate entries in the source; they are usually repeats but may differ in a detail not shown here. Identical values can stand only once.
Assays:
[1] = system: H1373; test: H1373 (lung) xenograft model; type: in vivo, mouse
Procedure: (§1) For xenograft models of H1373, HCC44, MiaPaca-2, SW1463, SW837, KYSE-410 and UM-UC-3, typically 5-10×10^6 cells in a 1:1 matrigel mix (0.2 mL total volume) are implanted by subcutaneous injection in hind leg of nude mice. […] Treatment is initiated with oral administration (gavage) of testing compound or vehicle (20% captisol, 25 mM phosphate, pH2.0) in 0.2 mL volume when tumor size reaches approximately 200-300 mg. Tumor growth and body weight are monitored over time to evaluate efficacy and signs of toxicity. For EL3187 PDX model, frozen vials containing tumor fragments are thawed at 37° C. in a water bath. The tumor fragments are transferred to 50 mL Falcon tube and the ice cold DMEM medium is slowly added into the tube to a total volume of 35 mL. Then the tumor fragments are centrifuged at 130×g for 2 minutes at 4° C. and supernatant is aspirated. This washing step is repeated twice and the tumor fragments are resuspended in 10 mL DMEM for implantation into athymic nude-Foxn1nu mice (Envigo RMS, Inc., Mount Comfort, Indiana). Once tumor volumes reach 800 to 1000 mm^3, animals are sacrificed and tumors are harvested using aseptic technique. Fresh tumors are cut into 10 to 15 mm^3 fragments and placed into cold Gibco hibernate medium. The tumor fragments are subcutaneously implanted into animals with a 10 g trochar needle. When tumor size reaches 200 to 300 mm^3, the animals are randomized for compound treatment.
(§2) Among models listed in Table 2, EL3187 is a patient-derived xenograft (PDX) model, and all other are tumor xenograft models.

[2] = system: HCC44; test: HCC44 (lung) xenograft model; type: in vivo, mouse
Procedure: as §1, §2

[3] = system: EL3187; test: EL3187 (lung) patient-derived xenograft (PDX) model; type: in vivo, mouse
Procedure: as §1, §2

[4] = system: SW1463; test: SW1463 (CRC) xenograft model; type: in vivo, mouse
Procedure: as §1, §2

[5] = system: SW837; test: SW837 (CRC) xenograft model; type: in vivo, mouse
Procedure: as §1, §2

[6] = system: UM-UC-3; test: UM-UC-3 (bladder) xenograft model; type: in vivo, mouse
Procedure: as §1, §2

[7] = system: KRAS G12C-mutant advanced CRC; test: NCT04956640 Phase 1b Cohort C2 (with cetuximab) clinical response (BOR, ORR, DCR, DOR, TTR, % change from baseline, treatment duration); type: in vivo, human; design: key to Best Response: CR: complete response; PR: partial response; uPR: a partial response pending confirmation; SD: stable disease; PD: progressive disease; NE: not estimable; conditions: for Duration of response (DOR) <6 months / Overall response status: Censored / Reason censored: Alive without documented disease progression / Time to response (TTR) <2 months: Phase 1b Cohort C2 responders
Procedure: The term “BOR” as used herein refers to best overall response based on investigator assessments using RECIST criteria (version 1.1). The minimum duration for BOR of SD is at least 6 weeks after the date of first dose of study drug.
The term “DOR” as used herein refers to duration of response, wherein DOR in months is calculated as the event or censoring date minus the response start date plus 1 day divided by 30.4375.
The term “ORR” as used herein refers to objective response rate, wherein objective response rate is the proportion of patients with BOR of CR or PR. Objective response rate, unconfirmed, is the proportion of patients with BOR of CR, PR, or uPR.
The term “TTR” as used herein refers to time to response, wherein TTR in months is calculated as response start date minus first dose date plus 1 day divided by 30.4375.
NCT04956640 includes Phase 1a dose escalation (Part A of NCT04956640, see Table 3) followed by a Phase 1b dose expansion (Parts B to E of NCT04956640, see Table 4). […] Phase 1b dose expansion will include 12 cohorts (See Table 4) to further evaluate safety and clinical activity.

[8] = Phase 1b Cohort C2, Total (N = 11)
[9] = Phase 1b Cohort C2, individual patients, starting dose 100 BID, no prior KRAS G12Ci, listed as compound of Formula I
[10] = Phase 1b Cohort C2, individual patients, starting dose 150 BID, no prior KRAS G12Ci, listed as compound of Formula I
[11] = Phase 1b Cohort C2, starting dose 100 mg BID (N = 6)
[12] = Phase 1b Cohort C2, starting dose 150 mg BID (N = 5)
[13] = starting dose 100 mg BID (N = 6)
[14] = starting dose 150 mg BID (N = 5)

SMILES: C=CC(=O)N1CCN2C(=O)c3cc(F)c(-c4ccc(F)c5sc(N)c(C#N)c45)c(Cl)c3OCC[C@H]2C1 (single isomer, unassigned) [Formula I]
- tumor growth inhibition (%) or regression (− %) ([1]; 5 mg/kg BID x28): −26.3%
- tumor growth inhibition (%) or regression (− %) ([1]; 5 mg/kg QD x28): 97.9%
- tumor growth inhibition (%) or regression (− %) ([1]; 10 mg/kg BID x28): −49%
- tumor growth inhibition (%) or regression (− %) ([1]; 10 mg/kg QD x28): −21.3%
- tumor growth inhibition (%) or regression (− %) ([1]; 30 mg/kg QD x28): −49.7%
- tumor growth inhibition (%) or regression (− %) ([2]; 5 mg/kg BID x28): 57.5%
- tumor growth inhibition (%) or regression (− %) ([2]; 5 mg/kg QD x28): 28.3%
- tumor growth inhibition (%) or regression (− %) ([2]; 10 mg/kg BID x28): 61.8%
- tumor growth inhibition (%) or regression (− %) ([2]; 10 mg/kg QD x28): 32.7%
- tumor growth inhibition (%) or regression (− %) ([2]; 30 mg/kg BID x28): 84.1%
- tumor growth inhibition (%) or regression (− %) ([2]; 30 mg/kg QD x28): 77%
- tumor growth inhibition (%) or regression (− %) ([3]; 1 mg/kg BID x28): 89.2%
- tumor growth inhibition (%) or regression (− %) ([3]; 1 mg/kg QD x28): 52%
- tumor growth inhibition (%) or regression (− %) ([3]; 3 mg/kg BID x28): −91%
- tumor growth inhibition (%) or regression (− %) ([3]; 3 mg/kg QD x28): −39.8%
- tumor growth inhibition (%) or regression (− %) ([3]; 10 mg/kg BID x28): −96%
- tumor growth inhibition (%) or regression (− %) ([3]; 10 mg/kg QD x28): −96%
- tumor growth inhibition (%) or regression (− %) ([4]; 5 mg/kg BID x28): 48.8%
- tumor growth inhibition (%) or regression (− %) ([4]; 5 mg/kg QD x28): 52.5%
- tumor growth inhibition (%) or regression (− %) ([4]; 10 mg/kg BID x28): 79.5%
- tumor growth inhibition (%) or regression (− %) ([4]; 10 mg/kg QD x28): 78.3%
- tumor growth inhibition (%) or regression (− %) ([4]; 30 mg/kg BID x28): 98.8%
- tumor growth inhibition (%) or regression (− %) ([4]; 30 mg/kg QD x28): 89.8%
- tumor growth inhibition (%) or regression (− %) ([5]; 5 mg/kg BID x28): 83.6%
- tumor growth inhibition (%) or regression (− %) ([5]; 5 mg/kg QD x28): 18.2%
- tumor growth inhibition (%) or regression (− %) ([5]; 10 mg/kg BID x28): 62.1%
- tumor growth inhibition (%) or regression (− %) ([5]; 10 mg/kg QD x28): 95.2%
- tumor growth inhibition (%) or regression (− %) ([5]; 30 mg/kg BID x28): −23.8%
- tumor growth inhibition (%) or regression (− %) ([5]; 30 mg/kg QD x28): 83.5%
- tumor growth inhibition (%) or regression (− %) ([6]; 5 mg/kg BID x28): 45.3%
- tumor growth inhibition (%) or regression (− %) ([6]; 5 mg/kg QD x28): 34.3%
- tumor growth inhibition (%) or regression (− %) ([6]; 10 mg/kg BID x28): 75%
- tumor growth inhibition (%) or regression (− %) ([6]; 10 mg/kg QD x28): 33.6%
- tumor growth inhibition (%) or regression (− %) ([6]; 30 mg/kg BID x28): 85%
- tumor growth inhibition (%) or regression (− %) ([6]; 30 mg/kg QD x28): 83.1%
- Best overall response (BOR): Complete Response (CR) [7, 8]: 0 (0.0) n (%)
- Best overall response (BOR): Not Evaluable (NE) [7, 8]: 0 (0.0) n (%)
- Best overall response (BOR): Partial Response (PR) [7, 8]: 3 (27.3) n (%)
- Best overall response (BOR): Partial Response, pending confirmation and ongoing (uPR) [7, 8]: 2 (18.2) n (%)
- Best overall response (BOR): Progressive Disease (PD) [7, 8]: 0 (0.0) n (%)
- Disease control rate (CR + PR + iPR + SD), Number of patients [7, 8]: 11 (100.0) n (%)
- Objective response rate (CR + PR), Number of patients [7, 8]: 3 (27.3) n (%)
- Objective response rate, confirmed and unconfirmed (CR + PR + uPR), Number of patients [7, 8]: 5 (45.5) n (%)
- Patients with best overall response of CR or PR [7, 8]: 3 (27.3) N′ (%)
- Time to response (months), Interquartile range [7, 8]: 0.33 months
- Time to response (months), Median [7, 8]: 1.31 months
- Time (months) of Progressive Disease ([7]; Phase 1b Cohort C2, individual patients, starting dose 100 BID, no prior KRAS G12Ci): 4.4 months
- % Change from Baseline in Sum of Diameters for all Target Lesions [7, 9]: −22.0% and −23.4% and −38.9% and −48.7% and −55.4% and −67.6%
- Best Response [7, 9]: SD (3×) and PR Confirmed (3×)
- Time (months) of Partial Response - Confirmed [7, 9]: 1.3 months and 1.6 months and 1.2 months
- % Change from Baseline in Sum of Diameters for all Target Lesions [7, 10]: −13.6% and −19.4% and −36.7% and −45.7% and −5.7%
- Best Response [7, 10]: SD (3×) and PR Pending (2×)
- Time (months) of Partial Response - Pending Confirmation and Ongoing [7, 10]: 2.1 months and 1.4 months
- Best overall response (BOR): Complete Response (CR) [7, 11]: 0 (0.0) n (%)
- Best overall response (BOR): Not Evaluable (NE) [7, 11]: 0 (0.0) n (%)
- Best overall response (BOR): Partial Response (PR) [7, 11]: 3 (50.0) n (%)
- Best overall response (BOR): Partial Response, pending confirmation and ongoing (uPR) [7, 11]: 0 (0.0) n (%)
- Best overall response (BOR): Progressive Disease (PD) [7, 11]: 0 (0.0) n (%)
- Disease control rate (CR + PR + iPR + SD), Number of patients [7, 11]: 6 (100.0) n (%)
- Objective response rate (CR + PR), Number of patients [7, 11]: 3 (50.0) n (%)
- Objective response rate, confirmed and unconfirmed (CR + PR + uPR), Number of patients [7, 11]: 3 (50.0) n (%)
- Patients with best overall response of CR or PR [7, 11]: 3 (50.0) N′ (%)
- Time to response (months), Interquartile range [7, 11]: 0.33 months
- Time to response (months), Median [7, 11]: 1.31 months
- Best overall response (BOR): Complete Response (CR) [7, 12]: 0 (0.0) n (%)
- Best overall response (BOR): Not Evaluable (NE) [7, 12]: 0 (0.0) n (%)
- Best overall response (BOR): Partial Response (PR) [7, 12]: 0 (0.0) n (%)
- Best overall response (BOR): Partial Response, pending confirmation and ongoing (uPR) [7, 12]: 2 (40.0) n (%)
- Best overall response (BOR): Progressive Disease (PD) [7, 12]: 0 (0.0) n (%)
- Disease control rate (CR + PR + iPR + SD), Number of patients [7, 12]: 5 (100.0) n (%)
- Objective response rate (CR + PR), Number of patients [7, 12]: 0 (0.0) n (%)
- Objective response rate, confirmed and unconfirmed (CR + PR + uPR), Number of patients [7, 12]: 2 (40.0) n (%)
- Patients with best overall response of CR or PR [7, 12]: 0 (0.0) N′ (%)
- Duration of response (DOR) <6 months ([7]; Total (N = 11)): 3 (100.0) n (%)
- Overall response status: Censored ([7]; Total (N = 11)): 3 (100.0) n (%)
- Reason censored: Alive without documented disease progression ([7]; Total (N = 11)): 3 (100.0) n (%)
- Time to response (TTR) <2 months ([7]; Total (N = 11)): 3 (100.0) n (%)
- Duration of response (DOR) <6 months [7, 13]: 3 (100.0) n (%)
- Overall response status: Censored [7, 13]: 3 (100.0) n (%)
- Reason censored: Alive without documented disease progression [7, 13]: 3 (100.0) n (%)
- Time to response (TTR) <2 months [7, 13]: 3 (100.0) n (%)
- Duration of response (DOR) <6 months [7, 14]: 0 (NE) n (%)
- Overall response status: Censored [7, 14]: 0 (NE) n (%)
- Reason censored: Alive without documented disease progression [7, 14]: 0 (NE) n (%)
- Time to response (TTR) <2 months [7, 14]: 0 (NE) n (%)
- median time to response ([7]; human, in vivo): 1.3 month
